Reference: patent US9113629B2, “4-amino-6-(4-substituted-phenyl)-picolinates and 6-amino-2-(4-substituted-phenyl)-pyrimidine-4-carboxylates and their use as herbicides” (DOW AGROSCIENCES LLC, priority 2013, dated 2015)
Read-outs that look alike come from different tables or passages of the source.

Experiments:
[1] = test system: Key Broadleaf Weed and Crop Species; test: Post-emergent Test II herbicidal activity (Table 5); type: in vivo; settings: post-emergence, 336 h, 14 days after application; for pest or weed control at 70 g/ha: application rate 70 g ai/ha; for pest or weed control at 140 g/ha: application rate 140 g ai/ha
How it was run: (§1)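 Compounds, dissolved in 97:3 acetone/DMSO and diluted into an aqueous carrier containing crop oil concentrate and Triton X-155, are applied over the top of young plants at 187 L/ha. Injury is scored visually at 14 d, 0% meaning no effect and 100% complete kill.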

[2] = test system: Key Grass and Sedge Weeds as well as Grass Crops; test: Post-emergent Test II herbicidal activity (Table 6); type: in vivo; settings: post-emergence, 336 h; for pest or weed control at 70 g/ha: 70 g ai/ha; for pest or weed control at 140 g/ha: 140 g ai/ha
How it was run: as §1

[3] = ABUTH: velvetleaf (Abutilon theophrasti), read-out: Visual Growth Reduction (%) 14 Days After Application, ABUTH
[4] = AMARE: redroot pigweed (Amaranthus retroflexus), read-out: Visual Growth Reduction (%) 14 Days After Application, AMARE
[5] = BRSNN: oilseed-rape, canola (Brassica napus), read-out: Visual Growth Reduction (%) 14 Days After Application, BRSNN
[6] = CHEAL: lambsquarters (Chenopodium album), read-out: Visual Growth Reduction (%) 14 Days After Application, CHEAL
[7] = EPHHL: wild poinsettia (Euphorbia heterophylla), read-out: Visual Growth Reduction (%) 14 Days After Application, EPHHL
[8] = HELAN: sunflower (Helianthus annuus), read-out: Visual Growth Reduction (%) 14 Days After Application, HELAN
[9] = VIOTR: wild pansy (Viola tricolor), read-out: Visual Growth Reduction (%) 14 Days After Application, VIOTR
[10] = CYPES: yellow nutsedge (Cyperus esculentus), read-out: Visual Growth Reduction (%) 14 Days After Application, CYPES
[11] = DIGSA: crabgrass (Digitaria sanguinalis), read-out: Visual Growth Reduction (%) 14 Days After Application, DIGSA
[12] = ECHCG: barnyardgrass (Echinochloa crus-galli), read-out: Visual Growth Reduction (%) 14 Days After Application, ECHCG
[13] = ORYSA: rice (Oryza sativa), crop, read-out: Visual Growth Reduction (%) 14 Days After Application, ORYSA
[14] = SETFA: giant foxtail (Setaria faberi), read-out: Visual Growth Reduction (%) 14 Days After Application, SETFA
[15] = SORVU: grain sorghum (Sorghum vulgare), read-out: Visual Growth Reduction (%) 14 Days After Application, SORVU
[16] = TRZSS (wheat, Triticum aestivum), crop, read-out: Visual Growth Reduction (%) 14 Days After Application, TRZSS
[17] = ZEAMX: maize, corn (Zea mays), crop, read-out: Visual Growth Reduction (%) 14 Days After Application, ZEAMX

Row | SMILES | pest or weed control at 70 g/ha [1, 3] [%] | pest or weed control at 140 g/ha [1, 3] [%] | pest or weed control at 70 g/ha [1, 4] [%] | pest or weed control at 140 g/ha [1, 4] [%] | pest or weed control at 70 g/ha [1, 5] [%] | pest or weed control at 140 g/ha [1, 5] [%] | pest or weed control at 70 g/ha [1, 6] [%] | pest or weed control at 140 g/ha [1, 6] [%] | pest or weed control at 70 g/ha [1, 7] [%] | pest or weed control at 140 g/ha [1, 7] [%] | pest or weed control at 70 g/ha [1, 8] [%] | pest or weed control at 140 g/ha [1, 8] [%] | pest or weed control at 70 g/ha [1, 9] [%] | pest or weed control at 140 g/ha [1, 9] [%] | pest or weed control at 70 g/ha [2, 10] [%] | pest or weed control at 140 g/ha [2, 10] [%] | pest or weed control at 70 g/ha [2, 11] [%] | pest or weed control at 140 g/ha [2, 11] [%] | pest or weed control at 70 g/ha [2, 12] [%] | pest or weed control at 140 g/ha [2, 12] [%] | other results
1 | Nc1c(F)c(-c2ccc(Br)cc2F)nc(C(=O)O)c1Cl [Compound 163] | 85 to 94 | 85 to 94 | 95 to 100 | 95 to 100 | 95 to 100 | 95 to 100 | 95 to 100 | 95 to 100 | 95 to 100 | 95 to 100 | 95 to 100 | 95 to 100 | 95 to 100 | 95 to 100 | 95 to 100 | 95 to 100 | 75 to 84 | 85 to 94 | 85 to 94 | 85 to 94 | pest or weed control at 70 g/ha [2, 13]: 0 to 29%; pest or weed control at 140 g/ha [2, 13]: 0 to 29%; pest or weed control at 70 g/ha [2, 14]: 85 to 94%; pest or weed control at 140 g/ha [2, 14]: 95 to 100%; pest or weed control at 70 g/ha [2, 15]: 85 to 94%; pest or weed control at 140 g/ha [2, 15]: 85 to 94%; pest or weed control at 70 g/ha [2, 16]: 60 to 74%; pest or weed control at 140 g/ha [2, 16]: 60 to 74%; pest or weed control at 70 g/ha [2, 17]: 45 to 59%; pest or weed control at 140 g/ha [2, 17]: 60 to 74%; melting point: 162 to 164 °C
2 | COC(=O)c1nc(-c2ccc(C(F)(F)F)c(F)c2)c(F)c(N)c1Cl [Compound 165] | 85 to 94 | 95 to 100 | 85 to 94 | 85 to 94 | 75 to 84 | 85 to 94 | 95 to 100 | 95 to 100 | 95 to 100 | 95 to 100 | 95 to 100 | 95 to 100 | 45 to 59 | 95 to 100 | 95 to 100 | 95 to 100 | 60 to 74 | 60 to 74 | 85 to 94 | 95 to 100 | pest or weed control at 70 g/ha [2, 13]: 0 to 29%; pest or weed control at 140 g/ha [2, 13]: 0 to 29%; pest or weed control at 70 g/ha [2, 14]: 60 to 74%; pest or weed control at 140 g/ha [2, 14]: 85 to 94%; pest or weed control at 70 g/ha [2, 15]: 60 to 74%; pest or weed control at 140 g/ha [2, 15]: 60 to 74%; pest or weed control at 70 g/ha [2, 16]: 45 to 59%; pest or weed control at 140 g/ha [2, 16]: 45 to 59%; pest or weed control at 70 g/ha [2, 17]: 75 to 84%; pest or weed control at 140 g/ha [2, 17]: 95 to 100%; melting point: 133 to 135 °C
3 | Nc1c(F)c(-c2ccc(I)cc2F)nc(C(=O)O)c1Cl [Compound 169] | 85 to 94 | 85 to 94 | 95 to 100 | 95 to 100 | 95 to 100 | 95 to 100 | 95 to 100 | 95 to 100 | 95 to 100 | 95 to 100 | 95 to 100 | 95 to 100 | 95 to 100 | 95 to 100 | 95 to 100 | 95 to 100 | 75 to 84 | 85 to 94 | 75 to 84 | 75 to 84 | pest or weed control at 70 g/ha [2, 13]: 30 to 44%; pest or weed control at 140 g/ha [2, 13]: 30 to 44%; pest or weed control at 70 g/ha [2, 14]: 95 to 100%; pest or weed control at 140 g/ha [2, 14]: 95 to 100%; pest or weed control at 70 g/ha [2, 15]: 95 to 100%; pest or weed control at 140 g/ha [2, 15]: 95 to 100%; pest or weed control at 70 g/ha [2, 16]: 30 to 44%; pest or weed control at 140 g/ha [2, 16]: 45 to 59%; pest or weed control at 70 g/ha [2, 17]: 95 to 100%; pest or weed control at 140 g/ha [2, 17]: 95 to 100%; melting point: 152 to 155 °C
